In patent US4271189A, “Lithium derivatives of taurine having reinforced neuro-muscular activity” (Les Laboratoires Meram, priority 1977, dated 1981):
Where a name gives a salt, the structure may show the parent alone. Read-outs that look alike come from different tables or passages of the source.

Experiments:
[1] = Neuro-muscular activity in the six pharmacological tests (summary); type: in vivo; conditions: mouse and rat
Description: (§1) 1. The investigation behaviour of the mouse was studied by the "Holed board" test (Boissier and Simon; Arch. Int. Pharmacodyn. 1964, 147, 3-4),
(§2) 2. The study of the spontaneous motility of the mouse was made by using Boissier's photoelectric actimeter.
(§3) 3. The study of the motility of the mice was also made by using Boissier's photoelectric actimeter, after amphetamine-acetyl-taurinate interaction according to the invention: the mice are treated simultaneously with 10 mg/kg (IP) of dextrorotatory amphetamine and with an optimal dose of acetyltaurinate.
(§4) 4. A study of the hypothermia in the mouse was effected by determining the rectal temperature of the mice 30 mins. before the intraperitoneal administration of the product, at the moment of this administration, then 30 mins., 1 hour, 2, 3 and 4 hrs. after the injection of the product.
(§5) 5. The study of the hypothermia after amphetamine-acetyl-taurinate interaction according to the invention was made according to the same method as previously in the mouse, the animals being treated simultaneously with 30 mg/kg (IP) of dextrorotatory amphetamine and with an optimal dose of the product to be tested.
(§6) 6. A test was also made of the appetite- and thirst-depressant activities in the rat.

[2] = Acute toxicity (LD50) in the male mouse, intraperitoneal and oral routes
Text: The acute toxicity of the compounds according to the invention was studied by the intraperitoneal route in the male mouse. The results obtained were as follows:
The value of lithium salts in the treatment of depressions and in particular of manic-depressive psychosis, is well-known. But the major disadvantage of this therapy resides in the toxicity of the currently known salts (carbonate, citrate, gluconate).

[3] = Motility of mice after amphetamine-acetyl-taurinate interaction (photoelectric actimeter); type: in vivo; conditions: mouse, with 10 mg/kg IP dextrorotatory amphetamine
Description: as §3

[4] = Spontaneous motility of the mouse, Boissier's photoelectric actimeter; type: in vivo
Text: as §2

[5] = Investigation behaviour of the mouse, "Holed board" test; type: in vivo
Text: as §1

[6] = Test of morphinic agitation in mice; type: in vivo, mouse; conditions: for effect type in the morphinic agitation test: 5-day treatment, 100, 500 and 2500 mg/Kg per os
Text: Furthermore, the neuro-muscular activity of the lithium N-acetyltaurinate has been evaluated in comparison with that of taurine and of the other salts of N-acetyltaurine, using the test of morphinic agitation.

[7] = Appetite- and thirst-depressant activities in the rat; type: in vivo
Text: as §6

[8] = Hypothermia in the mouse (rectal temperature); type: in vivo; conditions: for hypothermia / reduction in the rectal temperature: intraperitoneal
Description: as §4

[9] = Minimum lethal dose by intravenous route in male rabbits; type: in vivo, male rabbit
Description: This reduction of acute toxicity was confirmed by the evaluation of the minimum lethal dose by intraveinous route in male rabbits, comparatively beween lithium citrate and lithium N-acetyltaurinate:
In the same experimental conditions, the minimum lethal dose is 42 mg of lithium with lithium citrate, and 204 mg lithium with lithium N-acetyltaurinate.

[10] = Chronic toxicity in rats over three months, renal histology; type: in vivo, rat
Description: A study of the chronic toxicity in rats was conducted comparatively between lithium N-acetyltaurinate and lithium carbonate:
For three months, rats received doses of 8 mg/Kg and 24 mg/Kg per day of lithium, first in the form or lithium carbonate, and in the form of lithium N-acetyltaurinate.

[11] = in vivo
[12] = Hypothermia after amphetamine-acetyl-taurinate interaction in the mouse; type: in vivo
Description: as §5

[13] = Human observation: neuromuscular hyperexcitability; type: in vivo
Text: The following observation is given by way of example: a person has been treated for 7 years for a neuromuscular hyperexcitability,with a wide range of neuro-vegetative disorders. They present critical phenomena of lipothymia type, anxious crises with paroxysmal tachycardia. They have had four grand mal epileptic crises.
(§7) A person . . . […] 2 suicide attempts. Predominance of psychomotive inhibition. […] a person . . .

[14] = Human observation: chronic alcoholism with predelirium; type: in vivo
Text: as §7

[15] = Human observation: bipolar manic-depressive psychosis, lithemia and mood; conditions: one patient
[16] = listed as N-acetyl-taurinate of potassium
[17] = listed as N-acetyl-taurinate of lithium
[18] = listed as N-acetyltaurinate of calcium

## CC(=O)NCCS(=O)(=O)O [Example 2, N-acetyl-taurinate of potassium]
[1]
  neuro-muscular activity in six tests: neuro-muscular activity has been demonstrated
[2]; intraperitoneal route, male mouse, mg of compound, listed as N-acetyltaurinate of potassium
  LD50: 3234 mg/kg
[2]; oral route, male mouse, mg of compound, listed as N-acetyltaurinate of potassium
  LD50: 8170 mg/kg
[3]; [16]
  amphetaminic excitation: reduction
[4]; dose not stated, listed as N-acetyl-taurinate of potassium
  motive agitation: slight increase
[5]; [16]
  investigation behaviour / exploratory activity: increase in the investigation behaviour in the mouse, not proportional to the dose

## CC(=O)NCCS(=O)(=O)O [Example 3, N-acetyl-taurinate of lithium]
[6]; 100 mg/Kg per os, between the 75th and the 90th minute
  potentiation of the morphinic agitation: 45%
[6]; listed as lithium acetyltaurinate
  effect type in the morphinic agitation test: biphasic effect
[6]; stronger doses (500 and 2500 mg/Kg) per os
  effect on the agitation caused by morphine sulphate: antagonistic effect
[7]
  appetite- and thirst-depressant actions: very clear appetite- and thirst-depressant actions
  taking of food and drink consumed: very substantial reduction
[8]; [17]
  hypothermia / reduction in the rectal temperature: significant hypothermia
[9]
  minimum lethal dose: 204 mg of lithium
[2]; male mice, intraperitoneal and oral routes
  acute toxicity compared with that of lithium carbonate: clearly reduced acute toxicity
[2]; mouse, in vivo, ip, LD50
  LD50: 3880 mg/kg
[2]; mouse, in vivo, ip, LD50 in the male mouse, intraperitoneal route
  LD50: 155 mg/kg
[2]; mouse, in vivo, po, LD50
  LD50: 6630 mg/kg
[2]; mouse, in vivo, po, LD50 in the male mouse
  LD50: 266 mg/kg
[3]; [17]
  amphetaminic excitation: increase
[10]; conclusion from acute and chronic toxicity studies
  toxicity with respect to lithium carbonate (acute and chronic renal): less toxic
[10]; rat, in vivo
  tubular renal lesions thirty days after the treatment has stopped: a reversion of the lesions is noted in all the animals
[4]
  motility in free condition: very clear increase
[4]; dose not stated, listed as N-acetyl-taurinate of lithium
  motive agitation: increase
[11]
  stability of the mood: same stability of the mood
[12]; with 30 mg/kg IP dextrorotatory amphetamine
  hypothermia after simultaneous injection of amphetamine: completely eliminated
[5]; [17]
  investigation behaviour / exploratory activity: very clear increase

## CC(=O)NCCS(=O)(=O)O [Example 4, N-acetyl-taurinate of magnesium]
[6]; listed as Mg
  effect type in the morphinic agitation test: mono-phasic effect, antagonistic to the morphinic agitation even in small doses
[8]; 2 hours after the injection
  reduction in the maximum rectal temperature: very considerable reduction
[13]; venous perfusion 1 g first ten days with 1.5 g/day per os
  general state of the patient: complete recovery of the general state
[13]; verified with a recession of 13 months
  critical phenomena: disappearance of the critical phenomena
[2]; intraperitoneal route, male mouse, mg of compound, listed as N-acetyltaurinate of magnesium
  LD50: 1709 mg/kg
[2]; oral route, male mouse, mg of compound, listed as N-acetyltaurinate of magnesium
  LD50: 17400 mg/kg
[3]; listed as N-acetyl-taurinate of magnesium
  amphetaminic excitation: reduction
[4]; high dose (200 mg/kg)
  motive agitation: very clear reduction
[4]; low dose (100 mg/kg), listed as N-acetyl-taurinate of magnesium, 100 mg/kg
  motive agitation: increase
[12]; with amphetamine, 1 hour after the injection
  reduction of rectal temperature after simultaneous injection of amphetamine: completely eliminated

## CC(=O)NCCS(=O)(=O)O [Example 5, N-acetyl-taurinate of calcium]
[6]; listed as Ca
  effect type in the morphinic agitation test: mono-phasic effect, antagonistic to the morphinic agitation even in small doses
[8]; [18]
  hypothermia / reduction in the rectal temperature: significant reduction
[2]; intraperitoneal route, male mouse, mg of compound, listed as N-acetyltaurinate of calcium
  LD50: 1604 mg/kg
[2]; oral route, male mouse, mg of compound, listed as N-acetyltaurinate of calcium
  LD50: 13230 mg/kg
[3]; [18]
  amphetaminic excitation: does not modify
[14]; 1.5 g daily oral
  alcoholic weaning: upkept
  intellectual efficiency: improved
  tremblings: considerably reduced
[14]; venous perfusion 1 g per hour for three hours
  effect on attack of mental aberration with convulsions: sedation of the attack with a state of euphoria
[4]; low dose (100 mg/kg), listed as N-acetyltaurinate of calcium, 100 mg/kg
  motive agitation: reduction
[12]; amphetamine interaction
  hyperthermia: does not modify
[5]; [18]
  investigation behaviour / exploratory activity: increase

## O=C(O)O [Lithium carbonate, reference compound]
[2]; mouse, in vivo, ip
  LD50: 88 mg/kg
[2]; mouse, in vivo, po
  LD50: 162 mg/kg
[10]; rats, 8 and 24 mg/Kg per day of lithium, three months
  tubular renal lesions (histological study): tubular renal lesions appear in all the treated animals
[10]; rats, dose of 24 mg of lithium per Kg, 30 days after stop
  tubular renal lesions thirty days after the treatment has stopped: the lesions persist
[15]; 1 g/day
  lithemia: ≤ 0.5 meq/liter
[15]; increased dose
  signs of intolerance: permanent tremblings: nauseas, vomitings, hypotension
[15]
  stability of the mood: a stability of the mood is obtained

## O=C(O)CC(O)(CC(=O)O)C(=O)O [lithium citrate, reference compound]
[9]
  minimum lethal dose: 42 mg of lithium

## O=C([O-])[C@H](O)[C@@H](O)[C@H](O)[C@H](O)CO.[Li+] [lithium gluconate, reference compound]
[6]; potentiation in small doses
  effect on the morphinic agitation relative to lithium acetyltaurinate at 100 mg/Kg: comparable

## NCCS(=O)(=O)O [taurine]
[6]
  effect type in the morphinic agitation test: no effect
[1]
  neuro-muscular activity in six tests: without any activity
